We go through five molecules from ChEMBL document CHEMBL1201862, “PubChem BioAssay data set” (2004).

In assay [1] the test system is Vero. Nature of the assay: Vero cell cytotoxicity, cytotoxicity control for flavivirus capping enzyme inhibitors (AID 588742). Conditions: Chlorocebus sabaeus. The format is functional.
Assay [2] has as its target Genome polyprotein (dengue virus type 2, UniProt P29990). In words: Dengue-2 NS5 methyltransferase inhibitors, primary screen, biochemical, confirmation dose response (AID 588689). The format is functional.
The nature of assay [3]: Luminescence Cell-Based Dose Retest to Confirm Inhibitors of Cancer Stem Cells. [Related pubchem assays (depositor defined):AID2717, AID2721]. The assay is classed as functional. Conditions: Homo sapiens.
Assay [4] has as its target T1, Short transient receptor potential channel 4 (Mus musculus, UniProt Q9QUQ5).
T1 sequence (Q9QUQ5 whole entry): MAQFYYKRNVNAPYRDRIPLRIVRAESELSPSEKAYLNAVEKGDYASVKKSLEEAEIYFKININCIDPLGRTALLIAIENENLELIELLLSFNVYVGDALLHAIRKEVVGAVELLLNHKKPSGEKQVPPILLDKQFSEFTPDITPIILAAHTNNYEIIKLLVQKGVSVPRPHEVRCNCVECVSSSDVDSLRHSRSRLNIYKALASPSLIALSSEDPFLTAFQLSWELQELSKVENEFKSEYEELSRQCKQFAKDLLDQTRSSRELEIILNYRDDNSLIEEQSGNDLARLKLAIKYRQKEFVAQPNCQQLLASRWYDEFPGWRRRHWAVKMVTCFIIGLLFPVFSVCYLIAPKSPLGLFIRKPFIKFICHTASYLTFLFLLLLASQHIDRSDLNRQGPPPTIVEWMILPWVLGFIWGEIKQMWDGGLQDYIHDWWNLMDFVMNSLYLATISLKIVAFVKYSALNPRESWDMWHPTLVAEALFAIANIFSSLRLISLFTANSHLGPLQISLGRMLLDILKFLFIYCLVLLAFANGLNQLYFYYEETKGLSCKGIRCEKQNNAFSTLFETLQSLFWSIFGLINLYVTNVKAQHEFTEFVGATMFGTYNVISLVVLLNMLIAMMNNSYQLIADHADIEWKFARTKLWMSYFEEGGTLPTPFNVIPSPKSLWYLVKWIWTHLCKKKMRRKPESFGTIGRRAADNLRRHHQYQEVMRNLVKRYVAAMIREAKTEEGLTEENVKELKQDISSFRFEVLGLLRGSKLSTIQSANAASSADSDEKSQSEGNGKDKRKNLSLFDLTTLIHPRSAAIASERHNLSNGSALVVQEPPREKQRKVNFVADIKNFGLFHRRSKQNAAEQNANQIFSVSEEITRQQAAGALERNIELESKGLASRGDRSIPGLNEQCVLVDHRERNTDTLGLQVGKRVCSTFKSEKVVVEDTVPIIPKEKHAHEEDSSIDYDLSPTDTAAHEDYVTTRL
In words: mouse TRPC4 channel activators, dose response, cell-based, HEK293 TRPC4/mu-opioid, Fluo-4 calcium (AID 434937). The assay is classed as functional.

In assay [5] the test system is Streptococcus. Nature of the assay: Group A Streptococcus viability loss, dose response, counter-screen for streptokinase expression inhibitor project, luminescence, BacTiterGlo (AID 1915).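 Note: potency for reduction of bacterial viability or growth.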 The assay is classed as functional, organism-based. In general terms: A counterscreen serves to expose hits that act by an unwanted route or on another target.
For assay [6], the system named is Streptococcus sp. 'group A'. Nature of the assay: growth inhibition of control SK(-) GAS strain, dose response, counter-screen for streptokinase expression inhibitor project, luminescence, kanamycin, BacTiterGlo, confirmation (AID 1900). The format is functional, organism-based.

Each structure is given as a SMILES string. Activity calls are given as the source filed them. Some results are limits rather than exact numbers.
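Throughout, for AC50: cells exposed to compound for roughly 70 hours or longer before luminescence read.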

Sequence of Genome polyprotein (P29990 2492-3391 limits assumed): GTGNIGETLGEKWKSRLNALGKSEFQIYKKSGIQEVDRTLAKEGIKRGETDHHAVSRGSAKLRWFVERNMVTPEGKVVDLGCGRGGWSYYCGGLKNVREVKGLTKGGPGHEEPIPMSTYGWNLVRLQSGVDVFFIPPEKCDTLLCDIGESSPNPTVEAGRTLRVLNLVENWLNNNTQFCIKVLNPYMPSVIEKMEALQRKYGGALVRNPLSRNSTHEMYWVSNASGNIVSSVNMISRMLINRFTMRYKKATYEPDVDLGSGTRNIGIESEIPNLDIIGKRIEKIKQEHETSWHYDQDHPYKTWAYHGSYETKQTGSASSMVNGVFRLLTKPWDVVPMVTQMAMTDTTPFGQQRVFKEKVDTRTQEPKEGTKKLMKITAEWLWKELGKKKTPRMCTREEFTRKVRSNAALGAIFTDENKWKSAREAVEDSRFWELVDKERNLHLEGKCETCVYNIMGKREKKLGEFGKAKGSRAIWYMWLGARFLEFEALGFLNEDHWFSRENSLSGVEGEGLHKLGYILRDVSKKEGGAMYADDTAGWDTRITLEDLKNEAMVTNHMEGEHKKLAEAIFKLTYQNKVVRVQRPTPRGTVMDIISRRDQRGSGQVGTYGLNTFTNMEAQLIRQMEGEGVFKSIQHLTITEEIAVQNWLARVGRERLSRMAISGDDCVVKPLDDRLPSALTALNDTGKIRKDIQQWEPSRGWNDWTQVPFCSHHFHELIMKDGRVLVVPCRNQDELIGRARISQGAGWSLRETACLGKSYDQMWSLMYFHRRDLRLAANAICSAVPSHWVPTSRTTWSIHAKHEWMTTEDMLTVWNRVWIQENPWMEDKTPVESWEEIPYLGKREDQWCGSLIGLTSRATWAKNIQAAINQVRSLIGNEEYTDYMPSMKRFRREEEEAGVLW

The term CC50 denotes the concentration giving 50% cytotoxicity. Usually IC50 stands for the point on the concentration scale where inhibition reaches its midpoint. In general, AC50 refers to the concentration giving half of the maximal activity seen. With `Cc1[nH]n(-c2ncc(-c3ccc(Cl)cc3)s2)c(=O)c1C(c1ccc(Cl)cc1)C(C#N)C#N` (stereo not given), the half-maximal cytotoxic concentration (CC50) in assay [1] is > 40 µM (active). Besides, the half-maximal inhibitory concentration (IC50) in assay [2] is 23 µM (active). For the same molecule, in assay [3], the AC50 is 2.97 µM (active).
By EC50 is commonly meant the concentration at which the effect is half-maximal. On to `O=C(c1cccs1)N1CCN(c2ncc(Br)cn2)CC1`, for which the concentration giving a half-maximal response (EC50) in assay [4] was 0.668 µM (active).
Take `COc1ccc(/N=c2\oc3c(OC)cccc3cc2C(=O)NCc2ccco2)c(OC)c1`: the CC50 in assay [1] is > 40 µM (active). In assay [2], the IC50 is 40.8 µM (active).
For `CCCc1ccc(OCC(=O)NNC(=S)NC(=O)c2ccco2)cc1`, the EC50 in assay [4] was 6.68 µM (active); in assay [5], 1.39 µM (active); in assay [6], 0.069 µM (active).
As to `Cc1ccc(NC(S)=NCCc2c[nH]cn2)cc1C`, in assay [4], the EC50 was 0.267 µM (active).
